{"source": "patent US11213514B2", "about": "“Alpha-1-adrenergic receptor agonist therapy” (The Regents of the University of California, priority 2016, dated 2022)", "key": {"[1]": {"system": "wild type (WT) mice", "test": "Doxorubicin cardiotoxicity in wild type mice (survival, anatomy, conscious echocardiography, fibrosis)", "description": "FIGS. 2A-2B. […] On Day 7 the mice underwent echocardiography prior to sacrifice. FIG. 2A. Fractional shortening, a measure of contractile function, with representative M-mode echocardiogram images. […] FIG. 2B. Heart sections from some of these mice (i.e. wild type mice) stained with Masson Trichrome. Fibrosis (weighted average collagen content) was quantified using Aperio ImageScope software.\n(§1) On Day 7, mice underwent echocardiography and were sacrificed by cervical dislocation after an overdose of isoflurane.\nConscious transthoracic echocardiography was performed on loosely restrained mice in the McAllister Heart Institute Animal Models Core using a VisualSonics Vevo 2100 ultrasound system (VisualSonics, Inc., Toronto, Ontario, Canada). Two-dimensional and M-mode echocardiography were performed in the parasternal long-axis view at the level of the papillary muscle. Left ventricular systolic function was assessed by fractional shortening (% FS=[(LVEDD−LVESD)/LVEDD]×100). Reported values represent the average of at least five cardiac cycles per mouse. Sonographers and investigators were blinded to mouse treatment condition during image acquisition and analysis.\nMice were heparinized and the heart was perfused with 10 mL PBS followed by 20 mL of 4% PFA/PBS through a 23 G butterfly needle, excised and placed in 4% PFA/PBS for 24 hours then transferred to 70% EtOH. Hearts were stained using standard methods in the UNC Histology Research Core. Fibrosis was analyzed in 3 Masson Trichrome (MT)-stained sections of 4 or 5 hearts from each treatment group. Slides were scanned using an Aperio ScanScope (Aperio Technologies, Vista, Calif.) and analyzed in Aperio ImageScope software. The Algorithm Positive Pixel Count v9 was used to measure collagen staining by MT using hue value (0.66) and hue width (0.1) The N positive/N total value was used to determine a weighted average collagen content (%) for each section."}, "[2]": {"system": "Complex I, ATP synthase and Cytochrome C oxidase subunit transcripts", "test": "RNAseq transcript abundance of mitochondrial gene sets in mouse heart", "type": "in vivo", "protocol": "FIGS. 3A-3E. […] FIG. 3A. […] FIG. 3B. […] FIG. 3C. […] FIG. 3E.\nAn omnibus test of transcript abundance across all groups was performed with DESeq2 with groups encoded as categorical variables. One hundred-one genes were identified as significant by meeting the q<0.05 threshold (the set of genes with a 5% false discovery rate). Note, genes of potential interest can be found in Table 4.\n(FIG. 3B). […] (FIG. 3C).\nRNAseq was performed at the Carolina Center for Genome Sciences High Throughput Sequencing Facility. Libraries were prepared using an Illumina RNA TruSeq kit for total RNA. Single read sequencing (1×100) was performed on an Illumina HiSeq 2000 system. QC-passed reads were aligned to the mouse reference genome (mm9) using MapSplice.3 The alignment profile was determined by Picard Tools v1.64 (broadinstitute.github.io/picard/). Aligned reads were sorted and indexed using SAMtools and translated to transcriptome coordinates then filtered for indels, large inserts, and zero mapping quality using UBU v1.0 (github.com/mozack/ubu). Transcript abundance estimates for each sample were performed using RSEM, an expectation-maximization algorithm4 using the UCSC knownGene transcript and gene definitions. Raw RSEM read counts for all RNAseq samples were normalized to the overall upper quartile.5 Gene level differential expression testing was performed using the method of Love et al. (2014) implemented in the R package DESeq2. Gene set level tests were performed using the method of Efron and Tibshirani (2006) and gene sets as defined in the molecular signatures database, mSigdb.6 .GEO accession number is pending."}, "[3]": {"system": "ERK", "test": "ERK activation in mouse heart lysates with DOX, dabuzalgron and trametinib", "type": "in vivo", "description": "FIGS. 4A-4F. […] The reaction was stopped immediately and lysates were blotted for total and phospho-ERK (pERK). FIG. 4A. […] FIG. 4B. […] FIG. 4C. […] The average pERK/ERK ratio for each experiment was derived from at least 2 individual wells and normalized to the pERK/ERK ratio for vehicle treated NRVMs. FIG. 4D and FIG. 4E. […] Heart lysates were blotted for pERK and ERK. Results were compared using one way ANOVA with Tukey post-test. FIG. 4F.\nas §1\nHomogenized tissue or cells were lysed in RIPA buffer with protease and phosphatase inhibitor (as above) and the lysate was passed through a Qiashredder. Equal protein abundance was assured with the Bradford assay (tissue lysates) or equal cell number (NRVMs). Samples were run for 2 hours at 140 v on ice on a Novex NuPAGE 4-12% Bis-Tris gel then transferred to a PVDF membrane at 90V for 1 hour on ice. Membranes were blocked in 5% milk at room temperature for 1 hour. We used Cell Signaling kit #9100 (pERK Thr202/Tyr204 1:250, ERK 1:1000, anti-rabbit HRP 1:1000). BID: (Santa Cruz, SC-11423); Cytochrome C: (Santa Cruz, SC-13560); AIF: (Santa Cruz, SC-13116); Caspase 8: (MBL international corporation, JM-3020-100); PARP: (Cell Signaling, #9532); Caspase 3: (Cell Signaling, #9665); Cleaved caspase 3: (Cell Signaling, #9664)"}, "[4]": {"system": "neonatal rat ventricular myocytes (NRVMs)", "test": "Mitochondrial membrane potential (JC-1) in NRVMs", "type": "cell-based", "protocol": "FIG. 6A-6C. […] FIG. 6A. Mitochondrial membrane potential was assessed using JC-1 and fluorescent intensity was quantified using a plate reader. Red indicates intact mitochondrial membrane potential; green indicates compromised mitochondrial membrane potential (relative). Lysates were blotted for selected regulators of apoptosis and mitochondrial cell death effectors. Representative Western blots and summary findings from 3 independent experiments with at least 2 wells per condition in each experiment are shown.\nJC-1 exists as a green fluorescent monomer at low mitochondrial membrane potential and a red fluorescent aggregate at high mitochondrial membrane potential. […] (FIGS. 6A-6C).\nMitochondrial membrane potential: Mitochondrial membrane potential in NRVMs was determined by 5, 5′, 6, 6′-tetrachloro-1, 1′, 3, 3′-tetraethylbenzimidazolylcarbocyanine iodide (JC-1) reduction. Cells were stained with JC-1 (Mitoprobe, Cayman Chemical Company) according to the manufacturer's protocol. In brief, serum-starved NRVMs were treated with DOX or vehicle in the presence or absence of dabuzalgron. […] Cells were washed once with medium then analyzed by plate reader (CLARIOstar, BMG LABTECH, Germany). JC-1 green fluorescence was excited at 488 nm and emission was detected using a 530±40 nm filter. JC-1 red fluorescence was excited at 488 nm and emission was detected using a 613±20 nm filter."}, "[5]": {"system": "rabbits", "settings": "10 μg/kg; cited from earlier work"}, "[6]": {"settings": "WT mice, dabuzalgron after DOX, Day 7"}, "[7]": {"settings": "wild type mice, Dox 20 mg/kg i.p. + dabuzalgron 20 μg/kg/d gavage 7 days"}, "[8]": {"settings": "wild type mice, Dox + 1240 20 μg/kg/d, Day 7 echocardiography"}, "[9]": {"settings": "DOX + dabuzalgron 10 μg/kg twice daily"}, "[10]": {"settings": "dabuzalgron in the absence of DOX"}}, "data": [{"smiles": "Cc1c(OCC2=NCCN2)ccc(Cl)c1NS(C)(=O)=O", "note": "[dabuzalgron, N-[6-chloro-3-(4,5-dihydro-1H-imidazol-2-ylmethoxy)-2-methylphenyl]methanesulfonamide]", "values": [{"measurement": "effect of dabuzalgron on DOX-induced decrease in survival", "setting": "[1]; DOX 20 mg/kg i.p., dabuzalgron 10 μg/kg twice daily 7 days", "value": "not fully mitigated"}, {"measurement": "effect on DOX-induced decrease in contractile function", "setting": "[1]; WT mice, Day 7, dabuzalgron after DOX", "value": "prevented"}, {"measurement": "fractional shortening after DOX", "setting": "[1]; [6]", "value": "preserved"}, {"measurement": "left ventricular end systolic volume after DOX", "setting": "[1]; [6]", "value": "preserved"}, {"measurement": "effect on DOX-induced increase in fibrosis", "setting": "[1]; WT mouse heart sections, dabuzalgron after DOX", "value": "mitigated"}, {"measurement": "echocardiographic parameters", "setting": "[1]; mouse, in vivo", "value": "no effect"}, {"measurement": "7-day survival", "setting": "[1]; [7]", "value": 86, "unit": "%"}, {"measurement": "Body Wt Day 7", "setting": "[1]; [7]", "value": "24.3 ± 0.6", "unit": "g"}, {"measurement": "HW/BW", "setting": "[1]; [7]", "value": "0.41 ± 0.02", "unit": "%"}, {"measurement": "HW/TL", "setting": "[1]; [7]", "value": "5.5 ± 0.3", "unit": "mg/mm"}, {"measurement": "Heart Wt", "setting": "[1]; [7]", "value": "97 ± 5", "unit": "mg"}, {"measurement": "Lung Wt/TL", "setting": "[1]; [7]", "value": "7.7 ± 0.4", "unit": "mg/mm"}, {"measurement": "FS (Fractional Shortening)", "setting": "[1]; [8]", "value": "53 ± 1", "unit": "%"}, {"measurement": "HR (Heart Rate)", "setting": "[1]; [8]", "value": "667 ± 10", "unit": "beats per minute"}, {"measurement": "LVs vol (Left Ventricular systolic volume)", "setting": "[1]; [8]", "value": 5, "unit": "µL"}, {"measurement": "PWd (Posterior Wall, diastole)", "setting": "[1]; [8]", "value": 0.9, "unit": "mm"}, {"measurement": "expression of ATP synthase subunits after DOX", "setting": "[2]; [9]", "value": "restored"}, {"measurement": "expression of Complex I subunits after DOX", "setting": "[2]; [9]", "value": "restored"}, {"measurement": "expression of Cytochrome C oxidase subunits (25 genes) after DOX", "setting": "[2]; [9]", "value": "increased"}, {"measurement": "ATP synthase subunit abundance", "setting": "[2]; [10]", "value": "no significant effect"}, {"measurement": "Complex I subunit abundance", "setting": "[2]; [10]", "value": "increased"}, {"measurement": "Cytochrome C (oxidase subunit) abundance", "setting": "[2]; [10]", "value": "no significant effect"}, {"measurement": "effect on DOX-induced reduction of ERK activation", "setting": "[3]; mice, DOX + dabuzalgron", "value": "partially mitigated"}, {"measurement": "ERK activation after trametinib", "setting": "[3]; mice, DOX, dabuzalgron and trametinib", "value": "could not restore"}, {"measurement": "effect on DOX-induced loss of mitochondrial membrane potential", "setting": "[4]; DOX for 4 hours with dabuzalgron 10 μM", "value": "partially rescued"}, {"measurement": "effect on BP", "setting": "[5]", "value": "no effect"}]}, {"smiles": "COc1cccc2c1C(=O)c1c(O)c3c(c(O)c1C2=O)C[C@@](O)(C(=O)CO)C[C@@H]3O[C@H]1C[C@H](N)[C@H](O)[C@H](C)O1", "note": "[DOX, doxorubicin]", "values": [{"measurement": "burden of fibrosis, Masson Trichrome", "setting": "[1]; mouse, in vivo", "value": "increased significantly"}, {"measurement": "contractile function, conscious echocardiography", "setting": "[1]; mouse, in vivo", "value": "decrease"}, {"measurement": "7-day survival", "setting": "[1]; wild type mice, Dox 20 mg/kg i.p. + vehicle gavage 7 days", "value": 78, "unit": "%"}, {"measurement": "7-day survival", "setting": "[1]; wild type mice, Dox 20 mg/kg i.p. + vehicle gavage 7 days, listed as Dox", "value": 78, "unit": "%"}, {"measurement": "abundance of ATP synthase subunits (17 genes)", "setting": "[2]; DOX 20 mg/kg, Day 7", "value": "decreased"}, {"measurement": "abundance of Complex I subunits (42 genes)", "setting": "[2]; DOX 20 mg/kg, Day 7", "value": "decreased"}, {"measurement": "ERK activation in heart", "setting": "[3]; mice treated with DOX", "value": "reduced"}, {"measurement": "mitochondrial membrane potential (JC-1)", "setting": "[4]; DOX for 4 hours", "value": "profound loss"}]}]}
